Experimental findings from patent US12590099B2, “Inhibitors of histone deacetylase useful for the treatment or prevention of HIV infection” (Merck Sharp & Dohme LLC, priority 2018, dated 2026) are described below.

A word on the IC50: it is the concentration needed to halve the response being measured.

One experiment deals with T1, HDAC6 (Homo sapiens, UniProt Q9UBN7).
T1 sequence (Q9UBN7 1-1215): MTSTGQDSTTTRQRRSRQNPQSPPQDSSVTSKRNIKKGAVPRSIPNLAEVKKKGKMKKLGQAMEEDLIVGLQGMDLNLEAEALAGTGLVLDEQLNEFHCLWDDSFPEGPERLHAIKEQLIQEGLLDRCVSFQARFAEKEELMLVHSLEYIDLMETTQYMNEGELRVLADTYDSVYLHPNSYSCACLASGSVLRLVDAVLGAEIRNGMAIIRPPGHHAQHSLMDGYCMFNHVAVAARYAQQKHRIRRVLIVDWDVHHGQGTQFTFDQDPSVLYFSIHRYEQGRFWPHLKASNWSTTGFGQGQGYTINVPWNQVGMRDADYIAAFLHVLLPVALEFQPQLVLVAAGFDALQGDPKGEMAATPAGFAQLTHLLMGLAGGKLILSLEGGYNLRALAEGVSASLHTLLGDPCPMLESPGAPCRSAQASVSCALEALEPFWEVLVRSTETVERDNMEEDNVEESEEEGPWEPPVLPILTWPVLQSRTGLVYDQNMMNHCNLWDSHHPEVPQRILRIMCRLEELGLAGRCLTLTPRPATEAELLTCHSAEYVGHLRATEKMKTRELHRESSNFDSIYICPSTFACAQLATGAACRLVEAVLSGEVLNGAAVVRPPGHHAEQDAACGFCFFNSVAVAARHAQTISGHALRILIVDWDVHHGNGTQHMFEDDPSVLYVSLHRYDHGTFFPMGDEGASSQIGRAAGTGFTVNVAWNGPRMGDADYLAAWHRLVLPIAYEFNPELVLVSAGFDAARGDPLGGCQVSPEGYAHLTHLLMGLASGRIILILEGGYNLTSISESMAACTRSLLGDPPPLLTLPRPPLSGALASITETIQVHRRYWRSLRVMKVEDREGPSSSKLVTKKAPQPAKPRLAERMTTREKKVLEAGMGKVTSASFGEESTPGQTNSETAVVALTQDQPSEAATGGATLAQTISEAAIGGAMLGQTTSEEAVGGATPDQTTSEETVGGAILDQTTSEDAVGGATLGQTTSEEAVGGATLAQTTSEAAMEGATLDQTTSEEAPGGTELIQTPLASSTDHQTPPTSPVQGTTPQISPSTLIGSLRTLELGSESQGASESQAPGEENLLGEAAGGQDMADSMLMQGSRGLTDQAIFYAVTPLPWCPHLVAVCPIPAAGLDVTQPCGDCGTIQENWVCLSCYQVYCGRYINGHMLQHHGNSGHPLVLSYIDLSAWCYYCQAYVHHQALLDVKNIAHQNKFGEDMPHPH
The experiment can be described thus: Human HDAC enzyme inhibitor Fluor-de-Lys assay, HDAC6. The format is biochemical.

The next experiment has as its target T2, Recombinant human HDAC8 (Homo sapiens, UniProt Q9BY41).
T2 construct: purchased Enzo Life Sciences BML-SE145-0100
T2 sequence (Q9BY41 1-377): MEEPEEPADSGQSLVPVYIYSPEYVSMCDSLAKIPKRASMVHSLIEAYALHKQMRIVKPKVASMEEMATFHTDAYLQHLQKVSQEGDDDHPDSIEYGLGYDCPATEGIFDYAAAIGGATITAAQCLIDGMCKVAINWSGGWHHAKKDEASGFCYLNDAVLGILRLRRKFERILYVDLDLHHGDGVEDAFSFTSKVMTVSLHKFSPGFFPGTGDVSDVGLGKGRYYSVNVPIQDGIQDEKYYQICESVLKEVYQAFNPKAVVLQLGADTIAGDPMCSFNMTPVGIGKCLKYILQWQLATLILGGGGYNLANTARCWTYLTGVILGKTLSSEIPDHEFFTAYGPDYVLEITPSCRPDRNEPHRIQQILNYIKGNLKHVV
In words: Human HDAC enzyme inhibitor Fluor-de-Lys assay, HDAC8. In kind it is biochemical.

As to `CCC(=O)CCCCC[C@H](NC(=O)[C@H]1CC12CCN(C)CC2)c1ncc(-c2ccc3nc(C)cc(Cl)c3c2)[nH]1` [Compound 174], the values for the IC50 at HDAC6 and on Recombinant human HDAC8 were 0.951 µM and 1.21 µM, respectively.

`CCC(=O)CCCCC[C@H](NC(=O)C1CC2(CCN(C)CC2)C1)c1ncc(-c2ccc3nn(C)cc3c2)[nH]1` [Compound 145]: the IC50 was 5.76 µM on HDAC6 and 4.27 µM at Recombinant human HDAC8.

`CCC(=O)CCCCC[C@H](NC(=O)[C@H]1CC12CCN(C)CC2)c1nc(F)c(-c2cc3ccccc3nc2OC)[nH]1` [Compound 75]: the IC50 was more than 45 µM on HDAC6 and 27.3 µM on Recombinant human HDAC8.

On to `CCC(=O)CCCCC[C@H](NC(=O)[C@H]1CC12CCN(C)CC2)c1ncc(-c2ccc3c(=O)n(C)ccc3c2)o1` [Compound 137], for which the values for the IC50 against HDAC6 and at Recombinant human HDAC8 were 2.76 µM and 33.5 µM, respectively.

For the molecule `CCC(=O)CCCCC[C@H](NC(=O)[C@H]1CC12CCN(CC)CC2)c1ncc(-c2ccc3c(=O)n(C4CC4)ccc3c2)o1` [Compound 153], the figures for the half-inhibitory concentration (IC50) on HDAC6 and at Recombinant human HDAC8 were 10.4 µM and more than 15 µM, respectively.

For the molecule `CCC(=O)CCCCC[C@H](NC(=O)[C@H]1CC12CCN(CC)CC2)c1ncc(-c2ccc(-c3cnc(C4CC4)nc3)cc2)o1` [Compound 161], the IC50 on HDAC6 is 11.7 µM; on Recombinant human HDAC8, 26.8 µM.

Turning to `CCC(=O)CCCCC[C@H](NC(=O)CN1CCC2(CC1)CC2)c1ncc(-c2ccc3nn(C)cc3c2)[nH]1` [Compound 155], the IC50 amounted to 8.94 µM against HDAC6 and 8.13 µM at Recombinant human HDAC8.

Regarding `CCC(=O)CCCCC[C@H](NC(=O)[C@H]1CC12CCN(CC)CC2)c1ncc(-c2ccc(-c3cnc(C4CC4)cn3)cc2)o1` [Compound 129, (1S)—N-[(1S)-1-{5-[4-(5-cyclopropylpyrazin-2-yl)phenyl]-1,3-oxazol-2-yl}-7-oxononyl]-6-ethyl-6-azaspiro[2.5]octane-1-carboxamide], the figures for the IC50 at HDAC6 and on Recombinant human HDAC8 were more than 15 µM and 7.72 µM, respectively.

For the molecule `CCC(=O)CCCCC[C@H](NC(=O)[C@H]1CC12CCN(CC)CC2)c1ncc(-c2ccc3nc(C4CC4)ccc3c2)o1` [Compound 114], the values for the IC50 on HDAC6 and at Recombinant human HDAC8 were 4.09 µM and 27 µM, respectively.

Regarding `CCC(=O)CCCCC[C@H](NC(=O)[C@H]1CC12CCN(C)CC2)c1ncc(-c2ccc(-c3ccc(C4CC4)nc3)cc2)o1` [Compound 143], the IC50 at HDAC6 is 3.66 µM; at Recombinant human HDAC8 it was 13.1 µM.

As to `COc1cc2nc(C)ccc2cc1-c1cnc([C@H](CCCCCC(=O)CC2CC2)NC(=O)[C@H]2CC23CCN(C)CC3)o1` [Compound 195, (1S)—N-{(1S)-8-cyclopropyl-1-[5-(7-methoxy-2-methylquinolin-6-yl)-1,3-oxazol-2-yl]-7-oxooctyl}-6-methyl-6-azaspiro[2.5]octane-1-carboxamide], the IC50 against HDAC6 amounted to 21.5 µM; on Recombinant human HDAC8, 7.86 µM.

For `CCC(=O)CCCCC[C@H](NC(=O)[C@H]1CC12CCN(C)CC2)c1ncc(-c2ccc3cnc(OC)cc3c2)[nH]1` [Compound 113], the IC50 at HDAC6 is more than 4.5 µM; at Recombinant human HDAC8 it was 2.18 µM.

In the case of `CCC(=O)CCCCC[C@H](NC(=O)C1CC12CCN(C)C(C)(C)C2)c1ncc(-c2ccc3nc(C)ccc3c2)[nH]1` (single isomer, unassigned) [Compound 131], the figures for the IC50 against HDAC6 and on Recombinant human HDAC8 were 2.28 µM and 2.77 µM, respectively.

Turning to `CCC(=O)CCCCC[C@H](NC(=O)C1CC12CCN(C)C(C)(C)C2)c1ncc(-c2ccc3nc(C)ccc3c2)[nH]1` (single isomer, unassigned) [Compound 132], the IC50 came to 3.68 µM at HDAC6 and 8.06 µM at Recombinant human HDAC8.

With `CCC(=O)CCCCC[C@H](NC(=O)[C@H]1CC12CCN(C)CC2)c1ncc(-c2ccc(C3CC3)nc2)[nH]1` [Compound 139], the IC50 came out at 4.45 µM at HDAC6 and 12 µM at Recombinant human HDAC8.

On to `CCC(=O)CCCCC[C@H](NC(=O)[C@H]1CC12CCN(C)CC2)c1ncc(-c2ccc3c(c2)C2CCC3C2)[nH]1` (stereo partly shown) [Compound 74], for which the results for the IC50 against HDAC6 and at Recombinant human HDAC8 were 7.85 µM and 4.53 µM, respectively.

For `CCC(=O)CCCCC[C@H](NC(=O)[C@H]1CC12CCN(CC)CC2)c1ncc(-c2ccc3c(=O)n(C4CC4)ccc3c2)[nH]1` [Compound 150], the IC50 on HDAC6 was determined as 7.05 µM; on Recombinant human HDAC8, 4.37 µM.

Turning to `CCC(=O)CCCCC[C@H](NC(=O)[C@H]1CC12CCN(CC)CC2)c1nc(-c2cc3ccc(C)nc3cc2OC)cn1COC(=O)C(C)(C)C` [Compound 215, {2-[(1S)-1-({[(1S)-6-ethyl-6-azaspiro[2.5]oct-1-yl]carbonyl}amino)-7-oxononyl]-4-(7-methoxy-2-methylquinolin-6-yl)-1H-imidazol-1-yl}methyl 2,2-dimethylpropanoate], the IC50 on HDAC6 and on Recombinant human HDAC8 was more than 0.9 µM in each case.

Regarding `CCC(=O)CCCCC[C@H](NC(=O)[C@H]1CC12CCN(C)CC2)c1ncc(-c2ccc3nc(C4CC4)ccc3c2)o1` [Compound 121], the results for the IC50 against HDAC6 and on Recombinant human HDAC8 were 4.81 µM and 15.3 µM, respectively.

Take `CCC(=O)CCCCC[C@H](NC(=O)[C@H]1CC12CCN(C)CC2)c1ncc(-c2ccc3nc(C4CC4)oc3c2)[nH]1` [Compound 160]: the IC50 is 10.4 µM against HDAC6 and 16.8 µM on Recombinant human HDAC8.

With `CCC(=O)CCCCC[C@H](NC(=O)[C@H]1CC12CCN(CC)CC2)c1ncc(-c2cc3nn(C)cc3cc2OC)o1` [Compound 189], the IC50 was 0.159 µM against HDAC6 and 27.5 µM on Recombinant human HDAC8.

For `CCC(=O)CCCCC[C@H](NC(=O)C1=NOC2(CCN(CC)CC2)C1)c1ncc(-c2cc3ccc(C)nc3cc2OC)[nH]1` [Compound 207], the IC50 on HDAC6 came to 1.35 µM; on Recombinant human HDAC8, 1.59 µM.

On to `CCC(=O)CCCCC[C@H](NC(=O)C1=NOC2(CCN(C)CC2)C1)c1ncc(-c2cc3ccc(C)nc3cc2F)o1` [Compound 221], for which the IC50 against HDAC6 and on Recombinant human HDAC8 was more than 0.9 µM in each case.
